Columns and labels:
Assay type in all cases: in vivo, Sorghum bicolor
[1] = tested on: grain sorghum genotype BV94-4045 (susceptible wild type); experiment: Field phytotoxicity trial, aerial biomass as % of untreated control, wild type sorghum; conditions: BV94-4045 wild type; for Biomass % Control: field; for phytotoxicity / biomass accumulation (in words): POE, 20 days after herbicide application, 4×
Experimental: (§1) To determine the spectrum of tolerance to different HPPD herbicide site of action (SOA) active ingredients (AI) in a sorghum HPPD tolerant inbred BV10-11924 (ADV-HT2) following methodology was used.
(§2) Two grain sorghum genotypes were evaluated under field conditions with herbicide pre-emergency (PRE) and post-emergency (POE) treatments of 6 active ingredients of HPPD SOA herbicide families for sorghum crop phytotoxicity trials.
(§3) The experiment design was a split-plot design with 2 replicates where: Herbicide treatment was defined as Main plot, and Genotype as split plot. Plot size were 10 square meters each, this is 4 row/plot, 5 meters length and 0.52 meters between rows.
(§4) Both genotypes (Table 1) were sown in the Advanta R&D Station in Venado Tuerto, Argentina using an experimental planter. Wild type BV94-4045 (line used for mutagenesis in example 1) is a maintainer elite inbred line Advanta's proprietary.
(§5) All herbicide treatments (Table 2) were applied same day of sowing date for herbicide PRE treatments, and 15 days after sowing for POE treatments using an experimental sprayer in optimal weather conditions. The herbicides rates were defined as: 1×, 2× and 4×. Along with the herbicides, there were applied specific surfactant when they were recommended by the supplier for each herbicide. In all cases, 1× rate was defined based on the recommended dose in herbicide label. […]
(§6) For Aerial Biomass (Biomass) measurements, all plants from two central rows each plot were harvested by cutting them at ground level and weighted before and after drying at 60° C. for 48 h in order to determine the shoot dry mass reduction of each treatment. All data were standardized using the Aerial Biomass average as the % of Control plots. For the calculation as the percentage of its respective untreated control was used the following function:
(§7) Biomass % Control=(Biomassgh/Biomassg Control)*100
(§8) where “Biomass % Control” is the Aerial Biomass expressed as percent of each genotype in the Control plot without any herbicide application (Table 3); “Biomassgh” is the Aerial Biomass is the mean for each genotype*herbicide treatment combination and “Biomassg Control” is the Aerial Biomass mean for each genotype in the treatment CONTROL (untreated).

[2] = tested on: grain sorghum genotype BV10-11924 (mutant ADV-HT2); experiment: Field phytotoxicity trial, aerial biomass as % of untreated control, mutant ADV-HT2 sorghum; conditions: for Biomass % Control: field
Experimental: as §1, §2, §3, §4, §5, §6, §7, §8

[3] = tested on: M3 sorghum plants of furrow VT09-8800 (BV94-4045EMS1-256-2, ADV-HT2); experiment: Herbicide spray selection of EMS-mutagenised M3 sorghum progeny; conditions: sprayed with 33.6 ml active ingredient/ha; six M3 plants of furrow VT09-8800
Experimental: In order to obtain herbicide-tolerant plants, endogamic sorghum (Sorghum bicolor) line BV94-4045 (Advanta proprietary elite line) seeds were treated with an aqueous solution of ethyl methanesulfonate (EMS). Treated seeds were planted and self-pollinated for advancing generation. Eight hundred nighty five M1 plants were selected, and two seeds of each plant were planted in a nursery, thereby obtaining a total of 1790 M2 plants. Pollen from both plants of each pair were collected, and the bulk was used for pollinating both plants of the pair. A bulk of M3 seeds from each pair was obtained from the 895 pollinated M2 pairs of plants. A total of 895 furrows were planted with the M3 progeny. Fifty plants from each M3 furrow were sprayed with 33.6 ml active ingredient /ha of topramezone. […] The genealogy of the resistant plants from the furrows was identified and they were designated BV94-4045EMS1-256-2 (hereinafter referred to as ADV-HT2). Herbicide tolerant M7 mutant plants and seeds selected from the original ADV-HT2 mutant, designated as: Material ID=VT10-11924-1-BK and Inbred Code=BV10-11924, were obtained and deposited with the NCIMB collection with Access No. NCIMB 43919 under the terms of the Budapest Treaty,
Thirty-two thousand pre-germinated sorghum seeds from endogamic line BV94-4045 were dipped into an aqueous solution of 0.05% v/v ethyl methanesulfonate (EMS) for 16 hours. […]

[4] = PRE application (day of sowing), 1X = label recommended rate
[5] = PRE, 1× rate, 20 days after the application
[6] = POE application (15 days after sowing), 1X = label recommended rate
[7] = POE, 20 days after herbicide application, rates 1×, 2×, and 4×

Compound | Biomass % Control [1, 4] [%] | Biomass % Control ([1]; PRE application, 2X label rate) [%] | Biomass % Control ([1]; PRE application, 4X label rate) [%] | Biomass % Control [2, 4] [%] | Biomass % Control ([2]; PRE application, 2X label rate) [%] | Biomass % Control ([2]; PRE application, 4X label rate) [%] | phytotoxicity / biomass accumulation (in words) [2, 5] | Biomass % Control [1, 6] [%] | Biomass % Control ([1]; POE application, 2X label rate) [%] | Biomass % Control ([1]; POE application, 4X label rate) [%] | phytotoxicity / biomass accumulation (in words) ([1]; rates 2×) | Biomass % Control [2, 6] [%] | Biomass % Control ([2]; POE application, 2X label rate) [%] | Biomass % Control ([2]; POE application, 4X label rate) [%] | phytotoxicity / biomass accumulation (in words) [2, 7] | phytotoxicity / biomass accumulation (in words) ([1]; rates 1×, 2×) | plant growth and symptoms after treatment with herbicide (in words) [3]
COCCOCc1nc(C(F)(F)F)ccc1C(=O)C1=C(O)C2CCC(C2)C1=O (stereo not drawn) [BYC, BICYCLOPIRONA] | 65 | 10 | 1 | 127 | 46 | 15 | no significative reduction in biomass accumulation | – | – | – | – | – | – | – | – | – | –
CS(=O)(=O)c1cc(C(F)(F)F)ccc1C(=O)c1cnoc1C1CC1 [ISO, ISOXAFLUTOLE] | 63 | 28 | 10 | 84 | 68 | 38 | no significative reduction in biomass accumulation | – | – | – | – | – | – | – | – | – | –
CS(=O)(=O)c1ccc(C(=O)C2C(=O)CCCC2=O)c([N+](=O)[O-])c1 [MES, MESOTRIONE] | – | – | – | – | – | – | – | 108 | 32 | 13 | significant reduction in the biomass accumulation | 146 | 106 | 84 | tolerant without phytotoxicity nor reduction in the biomass accumulation | – | –
CCn1ncc(C(=O)c2ccc(S(C)(=O)=O)c(OCCOC)c2C)c1OC(C)OC(=O)OC (stereo not drawn) [TOL, TOLPYRALATE] | – | – | – | – | – | – | – | 76 | 60 | 64 | – | 117 | 92 | 127 | tolerant without phytotoxicity nor reduction in the biomass accumulation | significant reduction in the biomass accumulation | –
Cc1c(C(=O)c2cnn(C)c2O)ccc(S(C)(=O)=O)c1C1=NOCC1 [TOP, TOPRAMEZONE] | – | – | – | – | – | – | – | 77 | 51 | 39 | – | 126 | 107 | 117 | tolerant without phytotoxicity nor reduction in the biomass accumulation | significant reduction in the biomass accumulation | normal growth and absence of symptoms
